Source: patent US20240116988A1, “ANTI-ROR1 MACROCYCLIC PEPTIDES AND COMPOSITIONS” (BRISTOL-MYERS SQUIBB COMPANY, priority 2022, published 2024)
Positions of bridges follow the written chain, without caps; N, C: chain ends. Non-standard residues stand in square brackets, D forms with d. Residues, ends and D or L forms follow the SMILES beside them. ξ: configuration not given here. NMeF = CN[C@@H](Cc1ccccc1)C(=O)O; PEG5 = NCCOCCOCCOCCOCCOCCC(=O)O; NMeNle = CCCC[C@H](NC)C(=O)O; PEG3 = NCCOCCOCCOCCC(=O)O; NMeA = CN[C@@H](C)C(=O)O; AEEA = NCCOCCOCC(=O)O; ξL = CC(C)CC(N)C(=O)O

Biological target: T1, human ROR1 (Homo sapiens, UniProt Q01973)
T1 construct: host or cells: HEK 293T cells, Tet-on system induced with doxycycline
T1 sequence (Q01973 30-937): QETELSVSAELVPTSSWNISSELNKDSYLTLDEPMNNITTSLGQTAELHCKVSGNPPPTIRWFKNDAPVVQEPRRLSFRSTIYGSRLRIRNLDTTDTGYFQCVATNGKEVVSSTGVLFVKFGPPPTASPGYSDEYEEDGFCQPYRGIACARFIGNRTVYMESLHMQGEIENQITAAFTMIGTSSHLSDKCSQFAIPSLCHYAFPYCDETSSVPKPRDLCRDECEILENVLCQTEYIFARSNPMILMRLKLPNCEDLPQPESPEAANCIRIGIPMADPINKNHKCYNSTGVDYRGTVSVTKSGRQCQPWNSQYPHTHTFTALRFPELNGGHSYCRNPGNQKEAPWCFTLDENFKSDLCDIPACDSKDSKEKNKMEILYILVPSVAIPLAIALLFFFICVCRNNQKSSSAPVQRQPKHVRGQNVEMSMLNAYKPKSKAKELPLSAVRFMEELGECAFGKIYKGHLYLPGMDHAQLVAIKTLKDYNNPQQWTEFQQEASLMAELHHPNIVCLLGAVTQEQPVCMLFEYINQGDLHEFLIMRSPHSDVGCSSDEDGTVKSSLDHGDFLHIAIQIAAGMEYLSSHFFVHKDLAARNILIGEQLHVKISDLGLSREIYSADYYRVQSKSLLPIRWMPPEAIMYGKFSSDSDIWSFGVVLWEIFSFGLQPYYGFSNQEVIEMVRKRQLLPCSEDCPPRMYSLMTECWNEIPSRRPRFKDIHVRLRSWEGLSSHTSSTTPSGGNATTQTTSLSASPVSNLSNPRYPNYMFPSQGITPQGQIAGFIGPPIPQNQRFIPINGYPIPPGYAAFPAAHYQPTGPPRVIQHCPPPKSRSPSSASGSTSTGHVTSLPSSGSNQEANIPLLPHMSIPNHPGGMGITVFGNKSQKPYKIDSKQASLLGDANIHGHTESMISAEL
Assay: ROR1 high content cell-based binding assay
Details: read-out: ROR1 Binding 293T Human HC Cell Based Assay IC50
How it was run: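 Doxycycline-induced 293T cells expressing human ROR1, seeded overnight, were treated with compound plus 5-FAM-labeled ROR1-binding probe peptide (30 nM final) for 1 h at 37 °C. After washing and formaldehyde/Hoechst fixation, cell-bound probe fluorescence was read by high-content imaging.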

Row | Structure (SMILES) | IC50
1 | CC(C)C[C@@H]1NC(=O)[C@H](Cc2ccc(O)cc2)NC(=O)[C@H]([C@@H](C)O)NC(=O)CSC[C@@H](C(=O)NCC(N)=O)NC(=O)[C@H](CC(C)C)NC(=O)[C@H](Cc2ccccc2)N(C)C(=O)[C@H](Cc2ccc(O)cc2)NC(=O)[C@H](Cc2c[nH]c3ccccc23)NC(=O)CNC(=O)[C@H](CO)NC(=O)[C@H](Cc2ccc(O)cc2)NC(=O)[C@H](C(C)C)NC1=O [Example 1073] ({CH2CO}-TYLVYSGWY[NMeF]LCG-NH2; thioether N-12) | 249 nM
2 | CC(C)CC1NC(=O)[C@H](Cc2ccc(O)cc2)NC(=O)[C@H](C(C)C)NC(=O)CSC[C@@H](C(=O)NCC(N)=O)NC(=O)[C@H](CC(C)C)NC(=O)[C@H](Cc2ccccc2)N(C)C(=O)[C@H](Cc2ccc(O)cc2)NC(=O)[C@H](Cc2c[nH]c3ccccc23)NC(=O)CNC(=O)[C@H](CO)NC(=O)[C@H](Cc2ccc(O)cc2)NC(=O)[C@H](C(C)C)NC1=O (stereo partly drawn) [Example 1074] ({CH2CO}-VY[ξL]VYSGWY[NMeF]LCG-NH2; thioether N-12) | 122 nM
3 | CC(C)C[C@@H]1NC(=O)[C@H](Cc2ccc(O)cc2)NC(=O)[C@H](Cc2cnc[nH]2)NC(=O)CSC[C@@H](C(=O)NCC(N)=O)NC(=O)[C@H](CC(C)C)NC(=O)[C@H](Cc2ccccc2)N(C)C(=O)[C@H](Cc2ccc(O)cc2)NC(=O)[C@H](Cc2c[nH]c3ccccc23)NC(=O)CNC(=O)[C@H](CO)NC(=O)[C@H](Cc2ccc(O)cc2)NC(=O)[C@H](C(C)C)NC1=O [Example 1075] ({CH2CO}-HYLVYSGWY[NMeF]LCG-NH2; thioether N-12) | 30 nM
4 | CC(C)C[C@@H]1NC(=O)[C@H](Cc2ccc(O)cc2)NC(=O)[C@H](CC(N)=O)NC(=O)CSC[C@@H](C(=O)NCC(N)=O)NC(=O)[C@H](CC(C)C)NC(=O)[C@H](Cc2ccccc2)N(C)C(=O)[C@H](Cc2ccc(O)cc2)NC(=O)[C@H](Cc2c[nH]c3ccccc23)NC(=O)CNC(=O)[C@H](CO)NC(=O)[C@H](Cc2ccc(O)cc2)NC(=O)[C@H](C(C)C)NC1=O [Example 1076] ({CH2CO}-NYLVYSGWY[NMeF]LCG-NH2; thioether N-12) | 518 nM
5 | CC(C)C[C@@H]1NC(=O)[C@H](Cc2ccc(O)cc2)NC(=O)[C@H](Cc2c[nH]c3ccccc23)NC(=O)CSC[C@@H](C(=O)NCC(N)=O)NC(=O)[C@H](CC(C)C)NC(=O)[C@H](Cc2ccccc2)N(C)C(=O)[C@H](Cc2ccc(O)cc2)NC(=O)[C@H](Cc2c[nH]c3ccccc23)NC(=O)CNC(=O)[C@H](CO)NC(=O)[C@H](Cc2ccc(O)cc2)NC(=O)[C@H](C(C)C)NC1=O [Example 1077] ({CH2CO}-WYLVYSGWY[NMeF]LCG-NH2; thioether N-12) | 2 nM
6 | CCCC[C@H]1C(=O)N[C@@H](CC(C)C)C(=O)N[C@H](C(=O)NCCOCCOCC(=O)N[C@@H](CCCCN)C(N)=O)CSCC(=O)N[C@@H](Cc2ccccc2)C(=O)N[C@@H](Cc2ccc(O)cc2)C(=O)N[C@@H](Cc2c[nH]c3ccccc23)C(=O)N[C@@H](CO)C(=O)N[C@@H](CO)C(=O)N[C@@H](CCCNC(=N)N)C(=O)N(C)[C@@H](C)C(=O)N[C@@H](Cc2c[nH]c3ccccc23)C(=O)N[C@@H](Cc2ccc(O)cc2)C(=O)N1C [Example 1079] ({CH2CO}-FYWSSR[NMeA]WY[NMeNle]LC[AEEA]K-NH2; thioether N-12) | 25 nM
7 | CC(C)C[C@@H]1NC(=O)[C@H](Cc2ccc(O)cc2)NC(=O)[C@H](Cc2ccccc2)NC(=O)CSC[C@@H](C(=O)NCC(=O)O)NC(=O)[C@H](CC(C)C)NC(=O)[C@H](Cc2ccccc2)N(C)C(=O)[C@H](Cc2ccc(O)cc2)NC(=O)[C@H](Cc2c[nH]c3ccccc23)NC(=O)CNC(=O)[C@H](CO)NC(=O)[C@H](Cc2ccc(O)cc2)NC(=O)[C@H](C(C)C)NC1=O [Example 1080] ({CH2CO}-FYLVYSGWY[NMeF]LCG-OH; thioether N-12) | 217 nM
8 | CC[C@H](C)[C@@H]1NC(=O)[C@H](Cc2ccccc2)NC(=O)CSC[C@@H](C(=O)NCC(=O)NCCOCCOCC(=O)N[C@@H](CCCCN)C(N)=O)NC(=O)[C@H](C)NC(=O)[C@H](Cc2ccccc2)NC(=O)[C@H](Cc2ccc(O)cc2)NC(=O)[C@H](Cc2c[nH]c3ccccc23)NC(=O)CNC(=O)[C@H](CCC(=O)O)NC(=O)[C@H](Cc2ccc(O)cc2)NC(=O)[C@H](C(C)C)NC(=O)[C@H](Cc2c[nH]c3ccccc23)NC1=O [Example 1081] ({CH2CO}-FIWVYEGWYFACG[AEEA]K-NH2; thioether N-12) | 177 nM
9 | CC(C)C[C@@H]1NC(=O)[C@H](Cc2ccc(O)cc2)NC(=O)[C@H](Cc2ccccc2)N(C)C(=O)CSC[C@@H](C(=O)NCC(N)=O)NC(=O)[C@H](CC(C)C)NC(=O)[C@H](Cc2ccccc2)N(C)C(=O)[C@H](Cc2ccc(O)cc2)NC(=O)[C@H](Cc2c[nH]c3ccccc23)NC(=O)CNC(=O)[C@H](CO)NC(=O)[C@H](Cc2ccc(O)cc2)NC(=O)[C@H](C(C)C)NC1=O [Example 1082] ({CH2CO}-[NMeF]YLVYSGWY[NMeF]LCG-NH2; thioether N-12) | 192 nM
10 | CC(C)C[C@@H]1NC(=O)[C@H](Cc2ccc(O)cc2)NC(=O)[C@H](Cc2ccccc2)NC(=O)CSC[C@@H](C(=O)NCCOCCOCCOCCOCCOCCC(=O)N[C@@H](CCCCN)C(N)=O)NC(=O)[C@H](CC(C)C)NC(=O)[C@H](Cc2ccccc2)N(C)C(=O)[C@H](Cc2ccc(O)cc2)NC(=O)[C@H](Cc2c[nH]c3ccccc23)NC(=O)CNC(=O)[C@H](CO)NC(=O)[C@H](Cc2ccc(O)cc2)NC(=O)[C@H](C(C)C)NC1=O [Example 1083] ({CH2CO}-FYLVYSGWY[NMeF]LC[PEG5]K-NH2; thioether N-12) | 22 nM
11 | CC[C@H](C)[C@@H]1NC(=O)CSC[C@@H](C(=O)NCC(N)=O)NC(=O)[C@H](CC(C)C)NC(=O)[C@H](Cc2ccccc2)N(C)C(=O)[C@H](Cc2ccc(O)cc2)NC(=O)[C@H](Cc2c[nH]c3ccccc23)NC(=O)CNC(=O)[C@H](CO)NC(=O)[C@H](Cc2ccc(O)cc2)NC(=O)[C@H](C(C)C)NC(=O)[C@H](CC(C)C)NC(=O)[C@H](Cc2ccc(O)cc2)NC1=O [Example 1084] ({CH2CO}-IYLVYSGWY[NMeF]LCG-NH2; thioether N-12) | 227 nM
12 | CC(C)C[C@@H]1NC(=O)[C@H](Cc2ccc(O)cc2)NC(=O)[C@H](Cc2ccccc2)NC(=O)CSC[C@@H](C(=O)NCCOCCOCCOCCC(=O)N[C@@H](CCCCN)C(N)=O)NC(=O)[C@H](CC(C)C)NC(=O)[C@H](Cc2ccccc2)N(C)C(=O)[C@H](Cc2ccc(O)cc2)NC(=O)[C@H](Cc2c[nH]c3ccccc23)NC(=O)CNC(=O)[C@H](CO)NC(=O)[C@H](Cc2ccc(O)cc2)NC(=O)[C@H](C(C)C)NC1=O [Example 1085] ({CH2CO}-FYLVYSGWY[NMeF]LC[PEG3]K-NH2; thioether N-12) | 18 nM
13 | CC(C)C[C@@H]1NC(=O)[C@H](Cc2ccccc2)NC(=O)CSC[C@@H](C(=O)NCCOCCOCC(=O)O)NC(=O)[C@H](C)NC(=O)[C@H](Cc2ccc(O)cc2)NC(=O)[C@H](Cc2ccc(O)cc2)NC(=O)[C@H](Cc2c[nH]c3ccccc23)NC(=O)CNC(=O)[C@H](Cc2ccc(O)cc2)NC(=O)[C@H](CCCNC(=N)N)NC(=O)[C@H](C(C)C)NC(=O)[C@H](Cc2c[nH]c3ccccc23)NC1=O [Example 1086] ({CH2CO}-FLWVRYGWYYAC[AEEA]-OH; thioether N-12) | 364 nM
14 | CC(C)C[C@@H]1NC(=O)[C@H](Cc2ccccc2)NC(=O)CSC[C@@H](C(=O)NCC(=O)NCCOCCOCC(=O)O)NC(=O)[C@H](C)NC(=O)[C@H](Cc2ccc(O)cc2)NC(=O)[C@H](Cc2ccc(O)cc2)NC(=O)[C@H](Cc2c[nH]c3ccccc23)NC(=O)CNC(=O)[C@H](Cc2ccc(O)cc2)NC(=O)[C@H](CCCNC(=N)N)NC(=O)[C@H](C(C)C)NC(=O)[C@H](Cc2c[nH]c3ccccc23)NC1=O [Example 1087] ({CH2CO}-FLWVRYGWYYACG[AEEA]-OH; thioether N-12) | 131 nM
15 | CC(C)C[C@@H]1NC(=O)[C@H](Cc2ccc(O)cc2)NC(=O)[C@H](CCC(N)=O)NC(=O)CSC[C@@H](C(=O)NCC(N)=O)NC(=O)[C@H](CC(C)C)NC(=O)[C@H](Cc2ccccc2)N(C)C(=O)[C@H](Cc2ccc(O)cc2)NC(=O)[C@H](Cc2c[nH]c3ccccc23)NC(=O)CNC(=O)[C@H](CO)NC(=O)[C@H](Cc2ccc(O)cc2)NC(=O)[C@H](C(C)C)NC1=O [Example 1088] ({CH2CO}-QYLVYSGWY[NMeF]LCG-NH2; thioether N-12) | 83 nM
16 | CC(C)C[C@@H]1NC(=O)[C@H](Cc2ccc(O)cc2)NC(=O)[C@H](Cc2ccccc2)NC(=O)CSC[C@@H](C(=O)NCCOCCOCC(=O)N[C@@H](CCCCN)C(N)=O)NC(=O)[C@H](CC(C)C)NC(=O)[C@H](Cc2ccccc2)N(C)C(=O)[C@H](Cc2ccc(O)cc2)NC(=O)[C@H](Cc2c[nH]c3ccccc23)NC(=O)CNC(=O)[C@H](CO)NC(=O)[C@H](Cc2ccc(O)cc2)NC(=O)[C@H](C(C)C)NC1=O [Example 1089] ({CH2CO}-FYLVYSGWY[NMeF]LC[AEEA]K-NH2; thioether N-12) | 77 nM
17 | CC(C)C[C@@H]1NC(=O)[C@H](Cc2ccc(O)cc2)NC(=O)[C@H](Cc2ccccc2)NC(=O)CSC[C@@H](C(=O)NCCOCCOCC(=O)O)NC(=O)[C@H](CC(C)C)NC(=O)[C@H](Cc2ccccc2)N(C)C(=O)[C@H](Cc2ccc(O)cc2)NC(=O)[C@H](Cc2c[nH]c3ccccc23)NC(=O)CNC(=O)[C@H](CO)NC(=O)[C@H](Cc2ccc(O)cc2)NC(=O)[C@H](C(C)C)NC1=O [Example 1090] ({CH2CO}-FYLVYSGWY[NMeF]LC[AEEA]-OH; thioether N-12) | 67 nM
18 | CC(C)[C@@H]1NC(=O)[C@H](Cc2c[nH]c3ccccc23)NC(=O)[C@H](Cc2ccc(O)cc2)NC(=O)[C@H](Cc2c[nH]c3ccccc23)NC(=O)CNC(=O)[C@H](Cc2c[nH]c3ccccc23)NC(=O)[C@H](CCCNC(=N)N)NC(=O)[C@H](C(C)C)NC(=O)[C@H](Cc2ccccc2)N(C)C(=O)[C@H](CCCNC(=N)N)NC(=O)[C@H](Cc2ccccc2)NC(=O)CSC[C@@H](C(=O)NCCOCCOCC(=O)O)NC1=O [Example 1091] ({CH2CO}-FR[NMeF]VRWGWYWVC[AEEA]-OH; thioether N-12) | 565 nM
